Results from PubChem BioAssay (NCI).
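Results reflect a 48-hour exposure of cells in 96-well plates to compound at five concentrations. Definition used: TGI = concentration required for complete inhibition of growth.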

Columns and labels:
Experiment in all cases: NCI-60 cell line screen, 48 h
786-0 renal = system: 786-0 renal
A498 renal = system: A498 renal
A549 NSCLC = system: A549 NSCLC
ACHN renal = system: ACHN renal
BT-549 breast = system: BT-549 breast
CAKI-1 renal = system: CAKI-1 renal
CCRF-CEM leukemia = system: CCRF-CEM leukemia
COLO 205 colon = system: COLO 205 colon
DU-145 prostate = system: DU-145 prostate
EKVX NSCLC = system: EKVX NSCLC
HCC-2998 colon = system: HCC-2998 colon
HCT-116 colon = system: HCT-116 colon
HCT-15 colon = system: HCT-15 colon
HL-60(TB) leukemia = system: HL-60(TB) leukemia
HOP-62 NSCLC = system: HOP-62 NSCLC
HOP-92 NSCLC = system: HOP-92 NSCLC
HS 578T breast = system: HS 578T breast
HT29 colon = system: HT29 colon
IGROV1 ovarian = system: IGROV1 ovarian
K-562 leukemia = system: K-562 leukemia
KM12 colon = system: KM12 colon
LOX IMVI melanoma = system: LOX IMVI melanoma
M14 melanoma = system: M14 melanoma
MALME-3M melanoma = system: MALME-3M melanoma
MCF7 breast = system: MCF7 breast
MDA-MB-231 breast = system: MDA-MB-231 breast
MDA-N = system: MDA-N
MOLT-4 leukemia = system: MOLT-4 leukemia
NCI-H226 lung = system: NCI-H226 lung
NCI-H23 lung = system: NCI-H23 lung
NCI-H460 lung = system: NCI-H460 lung
NCI-H522 lung = system: NCI-H522 lung
NCI/ADR-RES ovarian = system: NCI/ADR-RES ovarian
OVCAR-4 ovarian = system: OVCAR-4 ovarian
OVCAR-5 ovarian = system: OVCAR-5 ovarian
OVCAR-8 ovarian = system: OVCAR-8 ovarian
PC-3 prostate = system: PC-3 prostate
RPMI-8226 leukemia = system: RPMI-8226 leukemia
RXF 393 renal = system: RXF 393 renal
SF-268 CNS = system: SF-268 CNS
SF-295 CNS = system: SF-295 CNS
SF-539 CNS = system: SF-539 CNS
SK-MEL-2 melanoma = system: SK-MEL-2 melanoma
SK-MEL-28 melanoma = system: SK-MEL-28 melanoma
SK-MEL-5 melanoma = system: SK-MEL-5 melanoma
SK-OV-3 ovarian = system: SK-OV-3 ovarian
SN12C renal = system: SN12C renal
SNB-19 CNS = system: SNB-19 CNS
SNB-75 CNS = system: SNB-75 CNS
SW-620 colon = system: SW-620 colon
T-47D breast = system: T-47D breast
TK-10 renal = system: TK-10 renal
U251 CNS = system: U251 CNS
UACC-257 melanoma = system: UACC-257 melanoma
UACC-62 melanoma = system: UACC-62 melanoma
UO-31 renal = system: UO-31 renal
MDA-MB-435 = system: MDA-MB-435
OVCAR-3 ovarian = system: OVCAR-3 ovarian
SR leukemia = system: SR leukemia

SMILES: COc1ccccc1NC1Oc2cc3c(cc2C(c2cc(OC)c(OC)c(OC)c2)C1C)OCO3 (stereo not drawn)
- TGI (786-0 renal): 36.8 µM
- TGI (A498 renal): > 30 µM
- TGI (A549 NSCLC): > 100 µM
- TGI (ACHN renal): > 100 µM
- TGI (BT-549 breast): > 70.8 µM
- TGI (CAKI-1 renal): 17.1 µM
- TGI (CCRF-CEM leukemia): > 50.3 µM
- TGI (COLO 205 colon): 5.79 µM
- TGI (DU-145 prostate): > 100 µM
- TGI (EKVX NSCLC): > 100 µM
- TGI (HCC-2998 colon): 7.93 µM
- TGI (HCT-116 colon): > 33.1 µM
- TGI (HCT-15 colon): > 100 µM
- TGI (HL-60(TB) leukemia): 3.36 µM
- TGI (HOP-62 NSCLC): > 51.1 µM
- TGI (HOP-92 NSCLC): > 22.8 µM
- TGI (HS 578T breast): > 25.2 µM
- TGI (HT29 colon): > 100 µM
- TGI (IGROV1 ovarian): > 100 µM
- TGI (K-562 leukemia): 12.5 µM
- TGI (KM12 colon): 29.4 µM
- TGI (LOX IMVI melanoma): > 100 µM
- TGI (M14 melanoma): > 100 µM
- TGI (MALME-3M melanoma): 9.43 µM
- TGI (MCF7 breast): > 100 µM
- TGI (MDA-MB-231 breast): > 23.9 µM
- TGI (MDA-N): 1.82 µM
- TGI (MOLT-4 leukemia): 33 µM
- TGI (NCI-H226 lung): 9.92 µM
- TGI (NCI-H23 lung): > 82.1 µM
- TGI (NCI-H460 lung): > 100 µM
- TGI (NCI-H522 lung): 4.82 µM
- TGI (NCI/ADR-RES ovarian): > 33.1 µM
- TGI (OVCAR-4 ovarian): > 78.5 µM
- TGI (OVCAR-5 ovarian): > 100 µM
- TGI (OVCAR-8 ovarian): > 64.2 µM
- TGI (PC-3 prostate): > 100 µM
- TGI (RPMI-8226 leukemia): 21 µM
- TGI (RXF 393 renal): 7.62 µM
- TGI (SF-268 CNS): > 46.2 µM
- TGI (SF-295 CNS): 2.99 µM
- TGI (SF-539 CNS): 5.24 µM
- TGI (SK-MEL-2 melanoma): > 100 µM
- TGI (SK-MEL-28 melanoma): > 100 µM
- TGI (SK-MEL-5 melanoma): 16.8 µM
- TGI (SK-OV-3 ovarian): > 31.1 µM
- TGI (SN12C renal): > 65.3 µM
- TGI (SNB-19 CNS): > 100 µM
- TGI (SNB-75 CNS): 16.7 µM
- TGI (SW-620 colon): > 100 µM
- TGI (T-47D breast): > 100 µM
- TGI (TK-10 renal): > 100 µM
- TGI (U251 CNS): 51.2 µM
- TGI (UACC-257 melanoma): > 100 µM
- TGI (UACC-62 melanoma): > 60.9 µM
- TGI (UO-31 renal): 43.8 µM

SMILES: Cc1ccc(S(=O)(=O)N(CCN)c2cc3c4c(c2)Oc2cccc5c2C4c2c(cccc2O3)O5)cc1
- TGI (786-0 renal): 30.2 µM
- TGI (A498 renal): > 100 µM
- TGI (A549 NSCLC): > 100 µM
- TGI (ACHN renal): > 100 µM
- TGI (BT-549 breast): > 100 µM
- TGI (CCRF-CEM leukemia): 57.9 µM
- TGI (COLO 205 colon): 57.9 µM
- TGI (EKVX NSCLC): 29 µM
- TGI (HCC-2998 colon): > 100 µM
- TGI (HCT-116 colon): 30.5 µM
- TGI (HCT-15 colon): > 100 µM
- TGI (HOP-62 NSCLC): 28.7 µM
- TGI (HOP-92 NSCLC): 70.8 µM
- TGI (HS 578T breast): 38.2 µM
- TGI (HT29 colon): 28.6 µM
- TGI (IGROV1 ovarian): 23.7 µM
- TGI (K-562 leukemia): > 100 µM
- TGI (KM12 colon): > 100 µM
- TGI (LOX IMVI melanoma): 73.4 µM
- TGI (M14 melanoma): 66.6 µM
- TGI (MALME-3M melanoma): 22.2 µM
- TGI (MCF7 breast): 47.8 µM
- TGI (MDA-MB-231 breast): 40.9 µM
- TGI (MDA-MB-435): 60.3 µM
- TGI (MDA-N): 67.6 µM
- TGI (MOLT-4 leukemia): > 100 µM
- TGI (NCI-H226 lung): 24.8 µM
- TGI (NCI-H23 lung): > 100 µM
- TGI (NCI-H460 lung): > 100 µM
- TGI (NCI/ADR-RES ovarian): 22.5 µM
- TGI (OVCAR-3 ovarian): 42.2 µM
- TGI (OVCAR-5 ovarian): 62.1 µM
- TGI (OVCAR-8 ovarian): 23.2 µM
- TGI (PC-3 prostate): 35.7 µM
- TGI (RPMI-8226 leukemia): > 100 µM
- TGI (SF-268 CNS): 27.4 µM
- TGI (SF-295 CNS): 54.5 µM
- TGI (SF-539 CNS): 50 µM
- TGI (SK-MEL-2 melanoma): 47.7 µM
- TGI (SK-MEL-28 melanoma): 66.3 µM
- TGI (SK-MEL-5 melanoma): 45.5 µM
- TGI (SK-OV-3 ovarian): > 100 µM
- TGI (SN12C renal): > 100 µM
- TGI (SNB-19 CNS): > 100 µM
- TGI (SNB-75 CNS): 25.1 µM
- TGI (SR leukemia): > 100 µM
- TGI (SW-620 colon): > 100 µM
- TGI (TK-10 renal): > 100 µM
- TGI (U251 CNS): > 100 µM
- TGI (UACC-257 melanoma): 98.4 µM
- TGI (UACC-62 melanoma): > 100 µM
- TGI (UO-31 renal): > 100 µM
